# Experimental data from ChEMBL document CHEMBL1147010, “Aziridine-2,3-dicarboxylate inhibitors targeting the major cysteine protease of Trypanosoma brucei as lead trypanocidal agents” (Bioorg Med Chem Lett, 2006).
# Activity calls are given as the source filed them. The calls are words filed in the database; no cut-off is given here.
# Experiments:
# J774 [1] = assay: Selectivity index, IC50 for J774.1/IC50 for Trypanosoma brucei brucei; assay type: functional
# J774 [2] = assay: Cytotoxicity against J774.1 cell line after 48 hrs; assay type: functional, cell-based; conditions: Mus musculus, J774, 48 h
# [3] = system: Trypanosoma brucei brucei; assay: Trypanocidal activity against Trypanosoma brucei brucei after 48 hrs; assay type: functional, organism-based
# Rhodesain = Rhodesain (Trypanosoma brucei rhodesiense, UniProt Q95PM0); assay: Inhibition of Trypanosoma brucei rhodesiense rhodesain
# Sequence of Rhodesain (Q95PM0 whole entry): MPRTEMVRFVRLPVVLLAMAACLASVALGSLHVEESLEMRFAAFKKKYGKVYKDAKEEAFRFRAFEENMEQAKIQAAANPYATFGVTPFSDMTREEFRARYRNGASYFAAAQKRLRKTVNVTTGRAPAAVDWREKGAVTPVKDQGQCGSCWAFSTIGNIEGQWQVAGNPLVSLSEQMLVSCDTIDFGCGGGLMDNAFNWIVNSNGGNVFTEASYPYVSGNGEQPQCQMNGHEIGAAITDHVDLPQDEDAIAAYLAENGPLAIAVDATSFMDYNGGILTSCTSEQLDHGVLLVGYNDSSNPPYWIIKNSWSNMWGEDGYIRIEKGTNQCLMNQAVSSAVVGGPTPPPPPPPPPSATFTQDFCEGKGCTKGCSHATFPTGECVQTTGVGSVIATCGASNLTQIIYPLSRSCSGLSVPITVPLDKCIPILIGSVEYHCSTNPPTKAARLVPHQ
# [4] = target: Rhodesain (Trypanosoma brucei rhodesiense) (UniProt Q95PM0); assay: Inhibition of Trypanosoma brucei rhodesiense rhodesain at 140 uM
# Sequence of Rhodesain (Trypanosoma brucei rhodesiense) (Q95PM0 1-450): as the sequence (Q95PM0 whole entry) above
# [5] = target: Rhodesain (Trypanosoma brucei rhodesiense) (UniProt Q95PM0); assay: Inhibition of Trypanosoma brucei rhodesiense rhodesain at 200 uM
inhibition [4],inhibition [5] [%],SMILES,Ratio IC50 (J774 [1]),IC50 (J774 [2]) [µM],IC50 [3] [µM],MIC [3] [µM],Ki (Rhodesain) [µM]
–,–,CC1CS(=O)(=O)CCN1/N=C/c1ccc([N+](=O)[O-])o1 (stereo not given) [NIFURTIMOX],>58,> 200,3.4,200,–
–,–,CCOC(=O)[C@@H]1[C@@H](C(=O)OCC)N1C(=O)[C@@H]1CCCN(C(=O)[C@H](CC(C)C)NC(=O)OC(C)(C)C)C1,–,> 100,> 100,–,1
–,–,C[C@H](NC(=O)[C@H](Cc1ccccc1)NC(=O)OC(C)(C)C)C(=O)N1[C@H](C(=O)O)[C@H]1C(=O)O,–,–,–,–,0.5
–,–,CCOC(=O)[C@H]1[C@H](C(=O)OCC)N1C(=O)[C@H]1CCCN(C(=O)[C@H](CC(C)C)NC(=O)OC(C)(C)C)C1,–,> 100,> 100,–,1.9
–,–,CC(C)C[C@@H](NC(=O)OC(C)(C)C)C(=O)N1CCC[C@@H]1C(=O)N1[C@H](C(=O)OCc2ccccc2)[C@H]1C(=O)OCc1ccccc1,>2.8,> 100,35.2,–,2.8
–,–,CC(C)(C)OC(=O)NCC(=O)N1CCC[C@@H](C(=O)N2[C@H](C(=O)OCc3ccccc3)[C@H]2C(=O)OCc2ccccc2)C1,>2.7,> 100,36.4,–,1.1
inactive,–,CC(C)(C)OC(=O)NCC(=O)N1CCC[C@@H]1C(=O)N1[C@H](C(=O)O)[C@H]1C(=O)O,–,> 100,> 100,–,–
inactive,–,CC(C)C[C@H](NC(=O)OC(C)(C)C)C(=O)N1CCC[C@H](C(=O)N2[C@H](C(=O)O)[C@H]2C(=O)O)C1,–,–,–,–,–
–,–,C[C@@H](NC(=O)[C@H](Cc1ccccc1)NC(=O)OC(C)(C)C)C(=O)N1[C@H](C(=O)O)[C@H]1C(=O)O,–,–,–,–,0.8
–,–,CC(C)(C)OC(=O)NCC(=O)N1CCC[C@H]1C(=O)N1[C@H](C(=O)O)[C@H]1C(=O)O,–,> 100,> 100,–,0.9
–,–,CCOC(=O)[C@@H]1[C@@H](C(=O)OCC)N1C(=O)[C@H]1CCCN(C(=O)[C@H](CC(C)C)NC(=O)OC(C)(C)C)C1,–,> 100,> 100,–,1
inactive,–,CC(C)C[C@@H](NC(=O)OC(C)(C)C)C(=O)N1CCC[C@@H](C(=O)N2[C@H](C(=O)O)[C@H]2C(=O)O)C1,–,–,–,–,–
–,–,CC(C)(C)OC(=O)NCC(=O)N1CCC[C@H](C(=O)N2[C@H](C(=O)OCc3ccccc3)[C@H]2C(=O)OCc2ccccc2)C1,>2.7,> 100,36.4,–,1.1
–,–,CCOC(=O)[C@H]1[C@H](C(=O)OCC)N1C(=O)CCCCCNC(=O)CCCC[C@@H]1SC[C@@H]2NC(=O)N[C@@H]21,–,> 100,> 100,–,0.6
–,–,CC(C)C[C@@H](NC(=O)OC(C)(C)C)C(=O)N1CCC[C@H]1C(=O)N1[C@H](C(=O)OCc2ccccc2)[C@H]1C(=O)OCc1ccccc1,>2.9,> 100,34.3,–,1.1
–,–,CC(C)C[C@@H](NC(=O)OC(C)(C)C)C(=O)N1CCC[C@@H](C(=O)N2[C@H](C(=O)OCc3ccccc3)[C@H]2C(=O)OCc2ccccc2)C1,>2.9,> 100,34,–,0.7
–,–,CC(C)C[C@@H](NC(=O)OC(C)(C)C)C(=O)N1CCC[C@H](C(=O)N2[C@H](C(=O)OCc3ccccc3)[C@H]2C(=O)OCc2ccccc2)C1,>2.9,> 100,34,–,0.7
–,–,C[C@@H](NC(=O)[C@@H](Cc1ccccc1)NC(=O)OC(C)(C)C)C(=O)N1[C@H](C(=O)O)[C@H]1C(=O)O,–,–,–,–,5
inactive,–,CC(C)C[C@H](NC(=O)OC(C)(C)C)C(=O)N1CCC(C(=O)N2[C@H](C(=O)O)[C@H]2C(=O)O)CC1,–,–,–,–,–
–,–,CCOC(=O)[C@@H]1[C@@H](C(=O)OCC)N1C(=O)[C@@H]1CN1C(=O)[C@@H](CC(C)C)NC(=O)OC(C)(C)C,>3.5,> 100,28.3,–,1.6
–,31.5,Cc1ccc(C(=O)Nc2ccc(S(=O)(=O)[O-])c3cc(S(=O)(=O)[O-])cc(S(=O)(=O)[O-])c23)cc1NC(=O)c1cccc(NC(=O)Nc2cccc(C(=O)Nc3cc(C(=O)Nc4ccc(S(=O)(=O)[O-])c5cc(S(=O)(=O)[O-])cc(S(=O)(=O)[O-])c45)ccc3C)c2)c1.[Na+].[Na+].[Na+].[Na+].[Na+].[Na+] [SURAMIN HEXASODIUM],>3225,> 1000,0.31,1,–
–,–,CCOC(=O)[C@H]1[C@H](C(=O)OCC)N1C(=O)[C@@H]1CCCN(C(=O)[C@H](CC(C)C)NC(=O)OC(C)(C)C)C1,–,> 100,> 100,–,1.9
–,–,CC(C)C[C@H](NC(=O)OC(C)(C)C)C(=O)N1CCC[C@H]1C(=O)N1[C@H](C(=O)OCc2ccccc2)[C@H]1C(=O)OCc1ccccc1,>11.3,> 125,11.1,125,2.3
–,–,CCOC(=O)[C@H]1[C@H](C(=O)OCC)N1C(=O)C1CCN(C(=O)[C@H](CC(C)C)NC(=O)OC(C)(C)C)CC1,–,> 100,> 100,–,3.3

inhibition [4],inhibition [5] [%],SMILES,Ratio IC50 (J774 [1]),IC50 (J774 [2]) [µM],IC50 [3] [µM],MIC [3] [µM],Ki (Rhodesain) [µM]
–,–,CC(C)C[C@H](NC(=O)OC(C)(C)C)C(=O)N1CCC[C@@H]1C(=O)N1[C@H](C(=O)OCc2ccccc2)[C@H]1C(=O)OCc1ccccc1,>3.2,> 100,31.4,–,1.2
inactive,–,CC(C)C[C@H](NC(=O)OC(C)(C)C)C(=O)N1CCC[C@H]1C(=O)N1[C@H](C(=O)O)[C@H]1C(=O)O,–,–,–,–,–
–,–,C[C@H](NC(=O)[C@H](Cc1ccccc1)NC(=O)OC(C)(C)C)C(=O)N1[C@H](C(=O)OCc2ccccc2)[C@H]1C(=O)OCc1ccccc1,>3.7,> 100,26.7,–,1.9
–,–,CCOC(=O)[C@@H]1[C@@H](C(=O)OCC)N1C(=O)[C@@H]1CCCN1C(=O)[C@H](CC(C)C)NC(=O)OC(C)(C)C,–,> 100,> 100,–,3.1
inactive,–,CC(C)C[C@H](NC(=O)OC(C)(C)C)C(=O)N1CCC[C@@H](C(=O)N2[C@H](C(=O)O)[C@H]2C(=O)O)C1,–,–,–,–,–
–,–,CC(C)C[C@H](NC(=O)OC(C)(C)C)C(=O)N1CCC[C@@H](C(=O)N2[C@H](C(=O)OCc3ccccc3)[C@H]2C(=O)OCc2ccccc2)C1,>3.9,> 100,25.6,–,0.6
–,–,CC(C)(C)OC(=O)NCC(=O)N1CCCC[C@H]1C(=O)N1[C@H](C(=O)OCc2ccccc2)[C@H]1C(=O)OCc1ccccc1,–,–,27.6,–,0.7
inactive,–,CC(C)(C)OC(=O)NCC(=O)N1CCC[C@H](C(=O)N2[C@H](C(=O)O)[C@H]2C(=O)O)C1,–,–,–,–,–
–,–,CCOC(=O)[C@H]1[C@H](C(=O)OCC)N1C(=O)[C@H]1CCN1C(=O)[C@H](CC(C)C)NC(=O)OC(C)(C)C,>4.8,> 100,20.6,–,3.1
inactive,–,CC(C)(C)OC(=O)NCC(=O)N1CCC[C@@H](C(=O)N2[C@H](C(=O)O)[C@H]2C(=O)O)C1,–,–,–,–,–
–,–,CC(C)(C)OC(=O)NCC(=O)N1CCC[C@H]1C(=O)N1[C@H](C(=O)OCc2ccccc2)[C@H]1C(=O)OCc1ccccc1,–,> 100,> 100,–,3.1
–,30.7,Cl.NCCCC(N)(C(=O)O)C(F)F.O (stereo not given) [EFLORNITHINE HYDROCHLORIDE],>44,> 1000,–,> 1000,–
–,–,C[C@@H](NC(=O)[C@@H](Cc1ccccc1)NC(=O)OC(C)(C)C)C(=O)N1[C@H](C(=O)OCc2ccccc2)[C@H]1C(=O)OCc1ccccc1,>3.8,> 100,25.8,–,3.9
–,–,CC(C)C[C@H](NC(=O)OC(C)(C)C)C(=O)N1CC[C@@H]1C(=O)N1[C@H](C(=O)OCc2ccccc2)[C@H]1C(=O)OCc1ccccc1,1.2,37.2,30.8,–,0.8
–,–,C[C@@H](NC(=O)[C@H](Cc1ccccc1)NC(=O)OC(C)(C)C)C(=O)N1[C@H](C(=O)OCc2ccccc2)[C@H]1C(=O)OCc1ccccc1,>3.2,> 100,30.5,–,1.2
–,–,CC(C)C[C@H](NC(=O)OC(C)(C)C)C(=O)N1CCC[C@H]1C(=O)N1[C@@H](C(=O)OCc2ccccc2)[C@@H]1C(=O)OCc1ccccc1,>11.5,> 125,10.9,125,0.5
–,–,C[C@H](NC(=O)[C@@H](Cc1ccccc1)NC(=O)OC(C)(C)C)C(=O)N1[C@H](C(=O)O)[C@H]1C(=O)O,–,–,–,–,0.1
–,–,CC(C)C[C@H](NC(=O)OC(C)(C)C)C(=O)N1CCC[C@H](C(=O)N2[C@H](C(=O)OCc3ccccc3)[C@H]2C(=O)OCc2ccccc2)C1,>3.9,> 100,25.6,–,0.6
–,–,CCOC(=O)[C@H]1[C@H](C(=O)OCC)N1C(=O)[C@@H]1CCN1C(=O)[C@H](CC(C)C)NC(=O)OC(C)(C)C,>4.8,> 100,20.6,–,3.1
–,–,CC(C)(C)OC(=O)NCC(=O)N1CCC[C@@H]1C(=O)N1[C@H](C(=O)OCc2ccccc2)[C@H]1C(=O)OCc1ccccc1,–,> 100,> 100,–,1.6
inactive,–,CC(C)C[C@@H](NC(=O)OC(C)(C)C)C(=O)N1CCC[C@H](C(=O)N2[C@H](C(=O)O)[C@H]2C(=O)O)C1,–,–,–,–,–
–,27.9,N=C(N)c1ccc(OCCCCCOc2ccc(C(=N)N)cc2)cc1.O=S(=O)(O)CCO.O=S(=O)(O)CCO [PENTAMIDINE ISETHIONATE],14345,41.6,0.0029,–,–
–,–,CC(C)C[C@H](NC(=O)OC(C)(C)C)C(=O)N1CC[C@H]1C(=O)N1[C@H](C(=O)OCc2ccccc2)[C@H]1C(=O)OCc1ccccc1,1.2,37.2,30.8,–,0.8
–,–,CCOC(=O)[C@@H]1[C@@H](C(=O)OCC)N1C(=O)C1CCN(C(=O)[C@H](CC(C)C)NC(=O)OC(C)(C)C)CC1,–,> 100,> 100,–,1.4
